The values below come from patent US11654413B2, “System and method for enhancing effectiveness of products generated from ionization, oxidation, photooxidation, photocatalytic, and photochemical reactions” (BIS SCIENCE LLC., priority 2021, dated 2023).

Assay [1] relates to Staphylococcus aureus ATCC 6538. As to conditions: contact time 5 minutes. From the text:
The test substance was hydrogen peroxide at 1 ppm and at 0.3%, which was exposed or not exposed to photons with a wavelength from 0.001 nm-845 nm and applied to target, which included a biological medium inoculated with a viable bacteria concentration of Staphylococcus aureus ATCC 6538. Further, it may be appreciated that the control is the same microorganism.

Another assay relates to microbial counts. The note with it: 1 part per million, 5 minute contact time.
The next assay concerns E. coli. Put plainly: FIG. 2 microbial reduction by photon enhanced solution. Format: cell-based.

Where two headings read alike, the source gives them in different places.

Description for microbial counts: In an example embodiment of a system for progressive reduction of the microbial count in ambient air, a room with 1,000,000 colony forming units (CFUs) is equipped with a system for performing the methods as disclosed herein. A small micron photon/phonon enhanced antimicrobial dry fog of an enhanced oxidizing agent is continuously administered into the ambient air through an existing HVAC system at a concentration of less than 1 part per million.

`OO` [.3% H2O2 no photon activation, hydrogen peroxide]: the “Average CFU/ML” value in assay [1] was 4.05E+06 CFU/ML. Also, the CFU/ML in assay [1] (Replicate 1) is 4.10E+06 CFU/ML; in assay [1] (Replicate 2) it was 4.00E+06 CFU/ML.

`OO` [standard hydrogen peroxide, hydrogen peroxide]: the microbial reduction result in the assay with microbial counts is “little or no microbial reduction”.

As to `OO` [1 ppm H2O2 no photon activation, hydrogen peroxide], the “Average CFU/ML” value in assay [1] came out at 4.05E+06 CFU/ML. Besides, the CFU/ML in assay [1] (Replicate 1) and in assay [1] (Replicate 2) was 4.10E+06 CFU/ML throughout.

In the case of `OO` [hydrogen peroxide], in the assay on E. coli, the “microbial (E. coli) reduction” value is given as 0.0%.
